The values below come from EPA's ToxValDB 9.5 (doi:10.2903/j.efsa.2007.110r).

One data set relates to Apis mellifera. As to conditions: acute; duration: 48 hours; oral; unspecified; mortality.
The next data set has as its system Canidae. The settings on record: subchronic; duration: 90 days; oral; Dog Other; organ weight.
In the next data set the test system is Colinus virginianus. As to conditions: acute; oral; diet; mortality.
The subject of a further data set is Daphnia magna. The settings on record: chronic/long-term; duration: 21 days; reproduction.
A further data set concerns Oncorhynchus mykiss. The settings on record: acute; duration: 96 hours; mortality.
For the next data set, the system named is Pimephales promelas. As to conditions: chronic/long-term; duration: 28 days; growth.

Structures are written as SMILES. ≈ marks a conversion by molar mass, not a printed value.

On to `N#Cc1c[nH]cc1-c1cccc2c1OC(F)(F)O2` [Fludioxonil], for which the LD50 in the data set with Apis mellifera is above 100 µg/piece; in the data set on Bird (acute, oral, unspecified, mortality), at least 2000 mg/kg; in the data set on Rattus norvegicus (acute, oral, mortality) it was above 5000 mg/kg. Also, the NOEC in the data set with Bird (reproductive) was found to be 11.1 mg/kg-day; in the data set on Daphnia magna, 0.005 mg/L; in the data set on Pimephales promelas, 0.039 mg/L; in the data set on Tagia sp. (chronic/long-term) it was 20 mg/kg. The NOAEL (in general, the highest tested level that showed no adverse finding) with Canidae was found to be 58.5 mg/kg-day; in the data set with Rattus norvegicus (chronic, duration: 2 years, oral, diet, organ weight), 37 mg/kg-day; with Rattus norvegicus (reproduction developmental, reproduction) it was 212 mg/kg-day. Further, the LC50 in the data set with Colinus virginianus was above 833 mg/kg-day; with Oncorhynchus mykiss, 0.23 µg/mL (≈ 0.927 µM); in the data set on Tagia sp. (acute, mortality), above 1000 mg/kg.
